Measurements reported in patent publication US12583859B2, “PRMT5 inhibitors and uses thereof” (California Institute of Technology, priority 2019, dated 2026).

Assays:
[1] = system: drug-sensitive cell lines of Table 4; test: Cell Line Growth Retardation Assay, average maximum effect in sensitive cohort; type: cell-based, Human; settings: average maximum growth inhibition over sensitive cohort of Table 4; 6 days; up to 1 μM
Method: (§1) Cells were seeded at densities of 1,000-5,000 cells per well in 48-well tissue culture plates. After a 24 h rest period, cells were treated with compound at 1 μM, 0.2 μM, 0.04 μM, 0.008 μM, 0.0016 μM, and 0.00032 μM. A group of cells were treated with the vehicle in which the compound was prepared and served as a control. Prior to treatment, cells were counted and this count was used as a baseline for the calculation of growth inhibition. The cells were grown in the presence of compounds for 6 days and were counted on day 6. All cell counting was performed using a Synentec Cellavista plate imager. Growth inhibition was calculated as a ratio of cell population doublings in the presence of compound versus the absence of compound and expressed as the maximum percentage growth inhibition achieved across the range of tested concentrations of the compound (“maximum effect” or “ME”) calculated by fitting curves to data points from each dose-response assay using the Proc NLIN function in SAS for Windows version 9.2 (SAS Institute, Inc.).
(§2) Human cancer cell lines were grouped as “sensitive” or “resistant” to PRMT5 inhibition based on whether their growth was retarded by JNJ-64619178 (i.e., (1S,2R,3R,5R)-3-(2-(2-amino-3-bromoquinolin-7-yl)ethyl)-5-(4-amino-7H-pyrrolo[2,3-d]pyrimidin-7-yl)cyclopentane-1,2-diol) (data not shown; see Table 4). These sensitive and resistant cohorts were interrogated for response to each compound, and ME was calculated for each cell line using the same technique described above. Average MEs for the sensitive and resistant cohorts were calculated as arithmetic means of the group. “A” represents a percent of maximum effect of 60% or greater, “B” represents a percent of maximum effect of 30% to 59%, and “C” represents a percent of maximum effect of 29% or lower.

PRMT5 = molecular target: T1, PRMT5 (Homo sapiens, UniProt O14744); test: PRMT5 Enzymatic Inhibition Assay (chemiluminescence immunoassay of histone H4 methylation); type: biochemical; settings: 1 hour at room temperature; 10 μM to 1 nM
T1 construct: purchased BPS Biosciences 52002L
Method: A chemiluminescence immunoassay (CLIA) measuring the amount of PRMT5-mediated histone methylation was performed in a 96-well plate format according to the manufacturer's protocol (BPS Biosciences, Cat #52002L). A 96-well plate precoated with histone H4 peptide was rehydrated prior to use. A master mix containing PRMT5 substrate S-adenosylmethionine, reaction buffer, and purified PRMT5 enzyme was added to create reaction-competent wells. Wells lacking either S-adenosylmethionine substrate or PRMT5 enzyme were created as negative controls. 10 test concentrations, ranging from 100 μM to 10 nM, of the test compound were prepared using a 1:3 serial dilution in dH2O. 5 μL of each test concentration was added into a reaction-competent well. 5 μL of a 1% DMSO aqueous solution lacking inhibitor was added into negative control wells and into a reaction-competent well, creating a positive control well. The final reaction volume in each well was 50 μL, and the final concentration of the test compound in each well ranged from 10 μM to 1 nM. A known inhibitor of PRMT5, EPZ015666, was tested in parallel reaction wells as an assay validation control. The 96-well plate was incubated for 1 hour at room temperature.
Upon completion of the incubation, the reaction supernatant in each well was discarded. Wells were washed with 1×TBST and incubated in blocking buffer for 1 hour. The wells were incubated with a primary antibody recognizing methylated Arg3 residues on Histone H4 for 1 hour. The wells were washed with 1×TBST again and subsequently incubated with an HRP-conjugated secondary antibody for 30 minutes. The wells were washed again with 1×TBST, and equal parts of the chemiluminescence reagents were added into each well. Quantification of luminescence was measured in a plate reader.
Luminescence values were normalized against the positive and negative controls to convert the data into % PRMT5 activity. An inhibitor concentration-dependent curve was plotted against % PRMT5 activity and am IC50 value was determined for each compound.

[2] = system: drug-resistant cell lines of Table 4; test: Cell Line Growth Retardation Assay, average maximum effect in resistant cohort; type: cell-based, Human; settings: average maximum growth inhibition over resistant cohort of Table 4; 6 days; up to 1 μM
Method: as §1, §2

[3] = Caco-2 Assay (Papp A to B); type: in vitro ADME; settings: human, pH 7.4
Method: The degree of bi-directional human intestinal permeability for compounds was estimated using a Caco-2 cell permeability assay. Caco-2 cells were seeded onto polyethylene membranes in 96-well plates. The growth medium was refreshed every 4 to 5 days until cells formed a confluent cell monolayer. HBSS with 10 mM HEPES at pH 7.4 was used as the transport buffer. Compounds were tested at 2 μM bi-directionally in duplicate. Digoxin, nadolol and metoprolol were included as standards. Digoxin was tested at 10 μM bi-directionally in duplicate, while nadolol and metoprolol were tested at 2 μM in the A to B direction in duplicate. The final DMSO concentration was adjusted to less than 1% for all experiments. The plate was incubated for 2 hours in a CO2 incubator at 37° C., with 5% CO2 at saturated humidity. After incubation, all wells were mixed with acetonitrile containing an internal standard, and the plate was centrifuged at 4,000 rpm for 10 minutes. 100 μL supernatant was collected from each well and diluted with 100 μL distilled water for LC/MS/MS analysis. Concentrations of test and control compounds in starting solution, donor solution, and receiver solution were quantified by LC/MS/MS, using peak area ratio of analyte/internal standard.
The apparent permeability coefficient Papp (cm/s) was calculated using the equation: Papp=(dCr/dt)×Vr/(A×C0), where dCr/dt is the cumulative concentration of compound in the receiver chamber as a function of time (μM/s); Vr is the solution volume in the receiver chamber (0.075 mL on the apical side, 0.25 mL on the basolateral side); A is the surface area for the transport, which is 0.0804 cm^2 for the area of the monolayer; and Co is the initial concentration in the donor chamber (μM). “A” represents a score of 1 or greater, “B” represents a score of 0.2 to 0.99, and “C” represents a score of less than 0.2.
The efflux ratio was calculated using the equation: Efflux Ratio=Papp(BA)/Papp(AB)
Percent recovery was calculated using the equation: % Recovery=100×[(Vr×Cr)+(Vd×Cd)]/(Vd×C0), where Vd is the volume in the donor chambers, which are 0.075 mL on the apical side and 0.25 mL on the basolateral side; and Cd and Cr are the final concentrations of transport compound in donor and receiver chambers, respectively. Measurement of Compound Metabolic Stability

[4] = Water solubility of mesylate salt; type: physicochemical; settings: in water
Method: The freebase of Compound 15 was suspended in water, and methansulfonic acid was added (32 mg in 2 mL water). The resulting solution was gently heated and sonicated until a homogenous solution resulted, which was frozen and concentrated to dryness on the lyophilzer. The oily solid that resulted was re-dissolved in water, frozen and concentrated in the same manner to give a water soluble white solid (˜3 mg/mL). Further experiments were more easily conducted with this salt (32.0 mg, 91% yield over 2 steps).

[5] = Measurement of Compound Metabolic Stability in hepatocytes; type: in vitro ADME; settings: mouse hepatocytes; for hepatocyte CLint at 1 μM: read-out: CLint (μL/min/10^6)
Method: The metabolic stability of compounds was determined in hepatocytes from human, mice and rats. Compounds were diluted to 5 μM in Williams' Medium E from 10 mM stock solutions. 10 μL of each compound was aliquoted into a well of a 96-well plate and reactions were started by aliquoting 40 μL of a 625,000 cells/mL suspension into each well. The plate was incubated at 37° C. with 5% CO2. At each corresponding time point, the reaction was stopped by quenching with ACN containing internal standards (IS) at a 1:3. Plates were shaken at 500 rpm for 10 min, and then centrifuged at 3,220×g for 20 minutes. Supernatants were transferred to another 96-well plate containing a dilution solution. Supernatants were analyzed by LC/MS/MS. The Half-lives (in minutes) and CLint values (in μL/min/10^6 cells) of example compounds, as measured in mouse hepatocytes, are presented in Table 3. […] For CLint, “A” represents greater than 100 μL/min/10^6 cells, “B” represents 50 to 100 μL/min/10^6 cells, and “C” represents less than 50 μL/min/10^6 cells.
The remaining percent of compound after incubation was calculated using the following equation: % Remaining Compound=Peak Area Ratios of Tested Compound vs. Internal Standard at End Point • Peak Area Ratios of Tested Compound vs. Internal Standard at Start Point Compound half-life and CLint were calculated using the following equations: Ct=C0*e^−k*t(first order kinetics); when […], t1/2=ln 2/k=0.693/k; and CLint=k/(1,000,000 cells/mL) Activity-Guided Selection of Inhibitors

T1 sequence (O14744 2-637 limits assumed): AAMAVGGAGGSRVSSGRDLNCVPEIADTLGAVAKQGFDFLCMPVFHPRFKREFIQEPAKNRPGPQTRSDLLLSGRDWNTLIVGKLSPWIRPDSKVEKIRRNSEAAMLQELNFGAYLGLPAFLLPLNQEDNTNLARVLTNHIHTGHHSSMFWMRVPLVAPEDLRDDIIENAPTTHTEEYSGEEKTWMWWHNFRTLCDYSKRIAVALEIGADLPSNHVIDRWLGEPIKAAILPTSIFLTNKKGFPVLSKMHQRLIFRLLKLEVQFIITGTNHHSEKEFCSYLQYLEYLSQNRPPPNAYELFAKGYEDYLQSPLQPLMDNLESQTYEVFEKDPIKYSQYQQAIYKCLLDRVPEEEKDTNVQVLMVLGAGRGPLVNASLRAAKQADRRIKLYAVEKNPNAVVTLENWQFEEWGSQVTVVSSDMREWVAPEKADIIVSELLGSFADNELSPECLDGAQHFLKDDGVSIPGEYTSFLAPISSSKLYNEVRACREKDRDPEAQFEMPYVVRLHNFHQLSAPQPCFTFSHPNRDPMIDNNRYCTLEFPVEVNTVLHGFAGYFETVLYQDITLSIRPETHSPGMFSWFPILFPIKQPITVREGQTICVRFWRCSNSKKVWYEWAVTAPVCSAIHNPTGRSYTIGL
T1 sequence (Q9BQA1 2-342 partner limits assumed): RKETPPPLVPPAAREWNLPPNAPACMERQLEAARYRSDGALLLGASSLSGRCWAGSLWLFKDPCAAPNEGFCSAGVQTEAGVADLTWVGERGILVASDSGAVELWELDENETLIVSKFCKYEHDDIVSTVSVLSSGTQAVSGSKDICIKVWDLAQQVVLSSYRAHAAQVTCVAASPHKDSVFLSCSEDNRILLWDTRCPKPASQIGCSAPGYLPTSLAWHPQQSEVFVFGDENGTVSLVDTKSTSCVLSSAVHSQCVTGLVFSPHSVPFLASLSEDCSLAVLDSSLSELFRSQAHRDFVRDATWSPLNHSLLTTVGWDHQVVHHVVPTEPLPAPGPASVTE

Row | Compound | AvgSens ME (%) [1] | IC50 (PRMT5) | AvgRes ME (%) [2] | Papp A→B at 2 h, 2 μM [3] | solubility [4] | half-life at 1 μM [5] | hepatocyte CLint at 1 μM [5]
1 | Nc1nc2cc(C3C[C@@]4(CN3)C[C@@H](n3ccc5c(N)ncnc53)[C@H](O)[C@@H]4O)ccc2cc1Br (single isomer, unassigned) [Compound 8] | C (a percent of maximum effect of 29% or lower) | 101 to 500 nM | C (a percent of maximum effect of 29% or lower) | < 0.2 ×10⁻⁶ cm/s | – | – | –
2 | Nc1nc2cc(C3C[C@@]4(CN3)C[C@@H](n3ccc5c(Cl)ncnc53)[C@H](O)[C@@H]4O)ccc2cc1Br (single isomer, unassigned) [Compound 9] | B (a percent of maximum effect of 30% to 59%) | ≤ 100 nM | C (a percent of maximum effect of 29% or lower) | < 0.2 ×10⁻⁶ cm/s | – | – | –
3 | Nc1nc2cc(C3C[C@@]4(CO3)C[C@@H](n3ccc5c(N)ncnc53)[C@H](O)[C@@H]4O)ccc2cc1Br (single isomer, unassigned) [Compound 15] | A (a percent of maximum effect of 60% or greater) | ≤ 100 nM | B (a percent of maximum effect of 30% to 59%) | < 0.2 ×10⁻⁶ cm/s | ~3000 µg/mL | > 50 min | < 50 µL/min/1e6 cells
4 | Nc1nc2cc(C3C[C@@]4(CO3)C[C@@H](n3ccc5c(Cl)ncnc53)[C@H](O)[C@@H]4O)ccc2cc1Br (stereo partly drawn) [Compound 17] | A (a percent of maximum effect of 60% or greater) | ≤ 100 nM | B (a percent of maximum effect of 30% to 59%) | 0.2 to 0.99 ×10⁻⁶ cm/s | – | 15 to 50 min | 50 to 100 µL/min/1e6 cells
5 | Cc1ncnc2c1ccn2[C@@H]1C[C@@]2(CO[C@@H](c3ccc4cc(Br)c(N)nc4c3)C2)[C@@H](O)[C@H]1O [Compound 19] | A (a percent of maximum effect of 60% or greater) | ≤ 100 nM | B (a percent of maximum effect of 30% to 59%) | ≥ 1 ×10⁻⁶ cm/s | – | > 50 min | < 50 µL/min/1e6 cells
6 | Nc1nc2cc([C@H]3C[C@@]4(CO3)C[C@@H](n3ccc5cncnc53)[C@H](O)[C@@H]4O)ccc2cc1Br [Compound 22] | A (a percent of maximum effect of 60% or greater) | ≤ 100 nM | B (a percent of maximum effect of 30% to 59%) | ≥ 1 ×10⁻⁶ cm/s | – | < 15 min | > 100 µL/min/1e6 cells
7 | CNc1ncnc2c1ccn2[C@@H]1C[C@@]2(CO[C@@H](c3ccc4cc(Br)c(N)nc4c3)C2)[C@@H](O)[C@H]1O [Compound 23] | A (a percent of maximum effect of 60% or greater) | ≤ 100 nM | B (a percent of maximum effect of 30% to 59%) | 0.2 to 0.99 ×10⁻⁶ cm/s | – | > 50 min | < 50 µL/min/1e6 cells
8 | CCNc1ncnc2c1ccn2[C@@H]1C[C@@]2(CO[C@@H](c3ccc4cc(Br)c(N)nc4c3)C2)[C@@H](O)[C@H]1O [Compound 24] | A (a percent of maximum effect of 60% or greater) | ≤ 100 nM | B (a percent of maximum effect of 30% to 59%) | ≥ 1 ×10⁻⁶ cm/s | – | 15 to 50 min | 50 to 100 µL/min/1e6 cells
